Experimental data taken from ChEMBL document CHEMBL1201862, “PubChem BioAssay data set” (2004).
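In this assay, cells in 96-well plates receive the compound at five concentrations for 48 hours. Endpoints are linearly interpolated between the surrounding concentrations. GI50 marks 50% less growth.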 Calls of active or inactive are those of the source. Cut-off read from the data, not from the text of the source: active = GI50 up to about 1.1 µM and inactive = higher. Where a SMILES comes first, the peptide text is derived from it. [ ]: non-standard residue; d: D form. The star is where a group is joined. ξ: configuration not given here. Propanoyl(3-(4-MeO-Ph)) = COc1ccc(CCC(=O)*)cc1; Thr(3ξ) = CC(O)[C@H](N)C(=O)O; dNMeL = CN[C@H](CC(C)C)C(=O)O; Ac5c = NC1(C(=O)O)CCCC1; OBn = c1ccc(CO*)cc1; ξLac = CC(O)C(=O)O

How the values were obtained:
Experiment in all cases: NCI anticancer screen, dose series, 48 h
[1] = tested on: SNB-75
[2] = tested on: PC-3
[3] = tested on: SK-OV-3
[4] = tested on: EKVX
[5] = tested on: UACC-62
[6] = tested on: OVCAR-3
[7] = tested on: MDA-N
[8] = tested on: HCT-116
[9] = tested on: ACHN
[10] = tested on: NCI-H522
[11] = tested on: UACC-257
[12] = tested on: U-251
[13] = tested on: KM12
[14] = tested on: UO-31
[15] = tested on: HOP-92
[16] = tested on: SK-MEL-2
[17] = tested on: RXF 393
[18] = tested on: SN12C
[19] = tested on: NCI/ADR-RES
[20] = tested on: MDA-MB-435

Compound | GI50 [1] | GI50 [2] | GI50 [3] | GI50 [4] | GI50 [5] | GI50 [6] | GI50 [7] | GI50 [8] | GI50 [9] | GI50 [10] | GI50 [11] | GI50 [12] | GI50 [13] | GI50 [14] | GI50 [15] | GI50 [16] | GI50 [17] | GI50 [18] | GI50 [19] | GI50 [20]
O=S(=O)(c1cnccc1N1CCN(CCO)CC1)N1CCCC1 | > 100 µM (inactive) | > 100 µM (inactive) | > 100 µM (inactive) | > 100 µM (inactive) | > 100 µM (inactive) | > 100 µM (inactive) | > 100 µM (inactive) | > 100 µM (inactive) | > 100 µM (inactive) | > 100 µM (inactive) | > 100 µM (inactive) | > 100 µM (inactive) | > 100 µM (inactive) | > 100 µM (inactive) | > 100 µM (inactive) | > 100 µM (inactive) | > 100 µM (inactive) | > 100 µM (inactive) | > 100 µM (inactive) | > 100 µM (inactive)
O=C1C=CC(=O)C(CNc2ccc(C(=O)OC34CC5CC(CC(C5)C3)C4)cc2)=C1 | 3.39 µM (inactive) | 6.07 µM (inactive) | 20 µM (inactive) | 6.53 µM (inactive) | 5.14 µM (inactive) | 3.06 µM (inactive) | 4.73 µM (inactive) | 10 µM (inactive) | 6.28 µM (inactive) | 0.776 µM (active) | 6.04 µM (inactive) | 4.06 µM (inactive) | 5.94 µM (inactive) | 4.24 µM (inactive) | 3.28 µM (inactive) | 15.1 µM (inactive) | 1.71 µM (inactive) | 11.3 µM (inactive) | 3.44 µM (inactive) | 5.93 µM (inactive)
C/C(=N\NC1=NCCN1)c1cn(C2=NCCN2)nc1C | 77.6 µM (inactive) | > 100 µM (inactive) | > 100 µM (inactive) | > 100 µM (inactive) | > 100 µM (inactive) | > 100 µM (inactive) | > 100 µM (inactive) | > 100 µM (inactive) | > 100 µM (inactive) | > 100 µM (inactive) | > 100 µM (inactive) | > 100 µM (inactive) | > 100 µM (inactive) | > 100 µM (inactive) | 97.1 µM (inactive) | > 100 µM (inactive) | 72.1 µM (inactive) | > 100 µM (inactive) | > 100 µM (inactive) | > 100 µM (inactive)
CC(C)/C(Cl)=N/OC(=O)Nc1ccc(F)c(Cl)c1 | 17.8 µM (inactive) | 16.1 µM (inactive) | 16.4 µM (inactive) | 2.07 µM (inactive) | 14.2 µM (inactive) | 3.4 µM (inactive) | 3.92 µM (inactive) | 2.54 µM (inactive) | 1.88 µM (inactive) | 1.65 µM (inactive) | 13.5 µM (inactive) | 21.1 µM (inactive) | 16.6 µM (inactive) | 16.7 µM (inactive) | 1.59 µM (inactive) | 18.8 µM (inactive) | 12.9 µM (inactive) | 1.76 µM (inactive) | 14.5 µM (inactive) | 7.26 µM (inactive)
C/C(=N\Nc1nc2cc(Cl)ccc2s1)c1ccccn1 | 1.72 µM (inactive) | 1.35 µM (inactive) | 0.404 µM (active) | 0.129 µM (active) | 0.673 µM (active) | 0.0946 µM (active) | 1.73 µM (inactive) | 0.301 µM (active) | 0.191 µM (active) | 0.189 µM (active) | 0.519 µM (active) | 0.877 µM (active) | 0.63 µM (active) | 0.0685 µM (active) | 0.473 µM (active) | 0.442 µM (active) | 1.99 µM (inactive) | 0.372 µM (active) | 0.343 µM (active) | 1.83 µM (inactive)
Cc1cc(NS(=O)(=O)c2ccc(NC(=O)c3ccc4nc5ccccc5c(Nc5ccc(S(=O)(=O)Nc6cc(C)on6)cc5)c4c3)cc2)no1 | > 50 µM (inactive) | > 50 µM (inactive) | > 50 µM (inactive) | > 50 µM (inactive) | > 50 µM (inactive) | > 50 µM (inactive) | > 50 µM (inactive) | > 50 µM (inactive) | > 50 µM (inactive) | > 50 µM (inactive) | > 50 µM (inactive) | > 50 µM (inactive) | > 50 µM (inactive) | > 50 µM (inactive) | > 50 µM (inactive) | > 50 µM (inactive) | > 50 µM (inactive) | > 50 µM (inactive) | > 50 µM (inactive) | > 50 µM (inactive)
O=C1N[C@@H](c2c[nH]c3cc(Br)ccc23)C(=O)N[C@H]1c1c[nH]c2cc(Br)ccc12 | 9.4 µM (inactive) | > 100 µM (inactive) | 35.4 µM (inactive) | > 100 µM (inactive) | > 100 µM (inactive) | > 100 µM (inactive) | > 100 µM (inactive) | > 100 µM (inactive) | > 100 µM (inactive) | > 100 µM (inactive) | > 100 µM (inactive) | 25.8 µM (inactive) | 83.9 µM (inactive) | > 100 µM (inactive) | 40.6 µM (inactive) | > 100 µM (inactive) | > 100 µM (inactive) | > 100 µM (inactive) | > 100 µM (inactive) | > 100 µM (inactive)
CC1(C)OC(=O)N(c2ccccc2)C12C=Cc1cc([N+](=O)[O-])cc([N+](=O)[O-])c1O2 (stereo not given) | 66.5 µM (inactive) | 91.2 µM (inactive) | > 100 µM (inactive) | 91.8 µM (inactive) | 61 µM (inactive) | 97.7 µM (inactive) | > 100 µM (inactive) | > 100 µM (inactive) | > 100 µM (inactive) | 25.2 µM (inactive) | 50.2 µM (inactive) | > 100 µM (inactive) | > 100 µM (inactive) | 34.2 µM (inactive) | 12.4 µM (inactive) | > 100 µM (inactive) | > 100 µM (inactive) | > 100 µM (inactive) | > 100 µM (inactive) | 83.9 µM (inactive)
NC1(C(=O)NC2(C(=O)O)CCCC2)CCCC1 (H-[Ac5c]-[Ac5c]-OH) | > 100 µM (inactive) | > 100 µM (inactive) | > 100 µM (inactive) | > 100 µM (inactive) | > 100 µM (inactive) | > 100 µM (inactive) | > 100 µM (inactive) | > 100 µM (inactive) | > 100 µM (inactive) | > 100 µM (inactive) | > 100 µM (inactive) | > 100 µM (inactive) | > 100 µM (inactive) | > 100 µM (inactive) | > 100 µM (inactive) | > 100 µM (inactive) | > 100 µM (inactive) | > 100 µM (inactive) | > 100 µM (inactive) | > 100 µM (inactive)
COc1ccc(CCC(=O)OC(C)[C@H](NC(=O)[C@@H](CC(C)C)N(C)C(=O)[C@@H]2CCCN2C(=O)C(C)O)C(=O)OCc2ccccc2)cc1 (stereo not given in full) (H-[ξLac]P[dNMeL][Thr(3ξ)](Propanoyl(3-(4-MeO-Ph)))-OBn) | 19.9 µM (inactive) | 30.5 µM (inactive) | 84.1 µM (inactive) | 80.7 µM (inactive) | 19.2 µM (inactive) | 29.8 µM (inactive) | 32.4 µM (inactive) | 43.7 µM (inactive) | 41.6 µM (inactive) | 24.3 µM (inactive) | 18.4 µM (inactive) | 26.5 µM (inactive) | 27.9 µM (inactive) | 40.5 µM (inactive) | 19.1 µM (inactive) | 16.7 µM (inactive) | 22.1 µM (inactive) | 34.9 µM (inactive) | 27.5 µM (inactive) | 21.8 µM (inactive)
